Assay results as given in patent publication US8609635B2, “Fused tricyclic silyl compounds and methods of use thereof for the treatment of viral diseases” (priority 2010, dated 2013).
Read-outs that look alike come from different tables or passages of the source.

Columns and labels:
[1] = system: HCV replicon 1a (L31V) mutant; assay: Cell-based HCV replicon assay (TaqMan), genotype 1a mutant L31V; conditions: Hepatitis C virus, 72 h, read-out: HCV replicon EC50 1a (L31V)
Protocol: (§1) Measurement of inhibition by compounds of the present invention was performed using the HCV replicon system. Several different replicons encoding different HCV genotypes or mutations were used. In addition, potency measurements were made using different formats of the replicon assay, including different ways of measurements and different plating formats. See Jan M. Vrolijk et al., A replicons-based bioassay for the measurement of interferons in patients with chronic hepatitis C, 110 J. VIROLOGICAL METHODS 201 (2003); Steven S. Carroll et al., Inhibition of Hepatitis C Virus RNA Replication by 2′-Modified Nucleoside Analogs, 278(14) J. BIOLOGICAL […] 11979 (2003). However, the underlying principles are common to all of these determinations, and are outlined below.
(§2) Compounds of the present invention were assayed for cell-based anti-HCV activity using the following protocol. Replicon cells were seeded at 5000 cells/well in 96-well collagen I-coated Nunc plates in the presence of the test compound. Various concentrations of test compound, typically in 10 serial 2-fold dilutions, were added to the assay mixture, with the starting concentration ranging from 250 μM to 1 μM. The final concentration of DMSO was 0.5%, fetal bovine serum was 5%, in the assay media. Cells were harvested on day 3 by the addition of 1× cell lysis buffer (Ambion cat #8721). The replicon RNA level was measured using real time PCR (TaqMan® assay). The amplicon was located in 5B. The PCR primers were: 5B.2F, […] (SEQ. ID NO. 1); 5B.2R, […] (SEQ. ID NO. 2); the probe sequence was FAM-labeled […] (SEQ. ID NO. 3). GAPDH RNA was used as endogenous control and was amplified in the same reaction as NS5B (multiplex PCR) using primers and VIC-labeled probe recommended by the manufacturer (PE Applied Biosystem). The real-time RT-PCR reactions were run on ABI PRISM 7900HT Sequence Detection System using the following program: 48° C. for 30 minutes, 95° C. for 10 minutes, 40 cycles of 95° C. for 15 sec, 60° C. for 1 minute. The ΔCT values (CT5B-CTGAPDH) were plotted against the concentration of test compound and fitted to the sigmoid dose-response model using XLfit4 (MDL). […] Alternatively, to quantitate the absolute amount of replicon RNA, a standard curve was established by including serially diluted T7 transcripts of replicon RNA in the Taqman assay. All TaqMan® reagents were from PE Applied Biosystems. Such an assay procedure was described in detail in e.g. Malcolm et al., Antimicrobial Agents and Chemotherapy 50: 1013-1020 (2006).
(§3) Wherein gt1a_H77 was prepared as described in Yi et al., J Virol. 2004, 78(15):7904-15; gt1b_con1 was prepared as described in Lohmann et al., Science 1999, 285(5424):110-3; and gt2a_JFH was prepared as described in Kato et al., Gastroenterology. 2003, 125(6):1808-17. Chimeric replicons contain NS5A from patient isolates of genotypes 1a, 1b, 2b, 3a and 4a as indicated.

[2] = system: HCV chimeric replicon with NS5A of genotype 4a (DQ41878); assay: Cell-based HCV replicon assay (TaqMan), chimeric replicon genotype 4a (DQ41878); conditions: read-out: HCV replicon EC50 4a (DQ41878)
Protocol: as §1, §2, §3

[3] = system: HCV replicon 1a (Y93H) mutant; assay: Cell-based HCV replicon assay (TaqMan), genotype 1a mutant Y93H; conditions: read-out: HCV replicon EC50 1a (Y93H)
Protocol: as §1, §2, §3

[4] = system: HCV replicon gt1a_H77; assay: Cell-based HCV replicon assay (TaqMan), genotype 1a (H77); conditions: replicon 1a (H77), replicon RNA by TaqMan, day 3
Protocol: as §1, §2, §3

[5] = system: HCV replicon gt1b_con1; assay: Cell-based HCV replicon assay (TaqMan), genotype 1b (Con1); conditions: replicon 1b (Con1), replicon RNA by TaqMan, day 3
Protocol: as §1, §2, §3

[6] = system: HCV replicon gt2a_JFH; assay: Cell-based HCV replicon assay (TaqMan), genotype 2a (JFH); conditions: replicon 2a (JFH), replicon RNA by TaqMan, day 3
Protocol: as §1, §2, §3

[7] = system: HCV chimeric replicon with NS5A of genotype 3a (NC00982); assay: Cell-based HCV replicon assay (TaqMan), chimeric replicon genotype 3a (NC00982); conditions: replicon RNA by TaqMan, day 3
Protocol: as §1, §2, §3

[8] = system: HCV chimeric replicon with NS5A of genotype 2b (AB03090); assay: Cell-based HCV replicon assay (TaqMan), chimeric replicon genotype 2b (AB03090); conditions: replicon RNA by TaqMan, day 3
Protocol: as §1, §2, §3

[9] = Hepatitis C virus, 72 h, read-out: HCV replicon EC50 3a (NC00982), chimeric replicon 3a (NC00982)

| SMILES | EC50 [1] [nM] | EC50 ([2]; Hepatitis C virus, 72 h) [nM] | EC50 ([3]; Hepatitis C virus, 72 h) [nM] | EC50 ([4]; Hepatitis C virus, 72 h) [nM] | EC50 ([5]; Hepatitis C virus, 72 h) [nM] | EC50 ([6]; Hepatitis C virus, 72 h) [nM] | EC50 [7, 9] [nM] | EC50 ([8]; read-out: HCV replicon EC50 2b (AB03090), chimeric replicon 2b (AB03090)) [nM] | EC50 ([2]; chimeric replicon 4a (DQ41878), replicon RNA by TaqMan, day 3) [nM] | EC50 ([3]; replicon 1a mutant Y93H, replicon RNA by TaqMan, day 3) [nM] | EC50 [4] [nM] | EC50 [5] [nM] | EC50 [6] [nM] | EC50 ([7]; read-out: HCV replicon EC50 3a (NC00982), chimeric replicon 3a (NC00982)) [nM] | EC50 ([8]; Hepatitis C virus, 72 h, read-out: HCV replicon EC50 2b (AB03090), chimeric replicon 2b (AB03090)) [nM] |
| --- | --- | --- | --- | --- | --- | --- | --- | --- | --- | --- | --- | --- | --- | --- | --- |
| COC(=O)N[C@@H](C)C(=O)N1C[Si](C)(C)C[C@H]1c1ncc(-c2ccc(-c3ccc4c(ccc5nc([C@@H]6CC(F)(F)CN6C(=O)[C@@H](NC(=O)OC)C(C)C)[nH]c54)c3)cc2)[nH]1 [Compound 106] | 37.1 | 0.429 | 52.6 | 0.016 | 0.006 | 0.046 | 0.435 | – | – | – | – | – | – | – | – |
| COC(=O)N[C@H](C(=O)N1C[Si](C)(C)C[C@H]1c1nc2ccc3cc(-c4ccc(-c5cnc([C@@H]6CCCN6C(=O)[C@@H](NC(=O)OC)C67CC(C(F)(F)F)(C6)C7)[nH]5)cc4)ccc3c2[nH]1)C(C)C [Compound 81] | > 100 | > 10 | > 1000 | 0.94 | 0.012 | 0.712 | 9.69 | – | – | – | – | – | – | – | – |
| COC(=O)N[C@H](C(=O)N1CC(F)(F)C[C@H]1c1ncc(-c2ccc(-c3ccc4c(ccc5nc([C@@H]6C[Si](C)(C)CN6C(=O)[C@@H](NC(=O)OC)C(C)C)[nH]c54)c3)cc2)[nH]1)C(C)C [Compound 92] | – | – | – | – | – | – | – | 48 | 0.02 | 46 | 0.015 | 0.003 | 0.02 | 0.35 | – |
| COC(=O)N[C@H](C(=O)N1C[Si](C)(C)C[C@H]1c1ncc(-c2ccc(-c3ccc4c(ccc5nc([C@@H]6CC(F)CN6C(=O)[C@@H](NC(=O)OC)C(C)C)[nH]c54)c3)cc2)[nH]1)C(C)C (stereo partly drawn) [Compound 53] | 64 | 0.1 | 10 | 0.016 | 0.003 | 0.026 | 0.09 | – | – | – | – | – | – | – | – |
| COC(=O)N[C@H](C(=O)N1CC(F)(F)C[C@H]1c1nc2ccc3cc(-c4ccc(-c5cnc([C@@H]6C[Si](C)(C)CN6C(=O)[C@@H](NC(=O)OC)C6CC6)[nH]5)cc4)ccc3c2[nH]1)C(C)C [Compound 105] | 43 | 0.18 | 151 | 0.021 | 0.003 | 0.141 | 0.17 | – | – | – | – | – | – | – | – |
| COC(=O)N[C@H](C(=O)N1CC[C@H](C)[C@H]1c1nc2ccc3cc(-c4ccc(-c5cnc([C@@H]6C[Si](C)(C)CN6C(=O)[C@@H](NC(=O)OC)C(C)C)[nH]5)cc4)ccc3c2[nH]1)C(C)C [Compound 95] | 9 | 1.22 | 210 | > 0.1 | 0.015 | 0.032 | 0.066 | – | – | – | – | – | – | – | – |
| COC(=O)N[C@H](C(=O)N1C[Si](C)(C)C[C@H]1c1ncc(-c2ccc(-c3ccc4c(ccc5nc([C@@H]6CC(F)(F)CN6C(=O)[C@@H](NC(=O)OC)C(C)C)[nH]c54)c3)nc2)[nH]1)C(C)C [Compound 66] | 32 | – | 260 | 0.002 | 0.005 | 0.08 | 0.15 | – | – | – | – | – | – | – | > 100 |
| COC(=O)N[C@H](C(=O)N1C[Si](C)(C)C[C@H]1c1nc2ccc3cc(-c4ccc(-c5cnc([C@@H]6[C@@H]7C[C@@H]([C@@H](F)[C@H]7F)N6C(=O)[C@@H](NC(=O)OC6(C)CC6)C(C)C)[nH]5)cc4)ccc3c2[nH]1)C(C)C [Compound 101] | > 1000 | > 100 | > 1000 | > 1 | 0.023 | > 10 | 54.6 | – | – | – | – | – | – | – | – |
| COC(=O)N[C@H](C(=O)N1C[Si](C)(C)C[C@H]1c1ncc(-c2ccc(-c3ccc4c(ccc5nc([C@H]6[C@@H]7C[C@@H]([C@@H](F)[C@H]7F)N6C(=O)[C@@H](NC(=O)OC)C(C)C)[nH]c54)c3)cc2)[nH]1)C(C)C [Compound 102] | 113 | 0.3 | 438 | 0.084 | < 2 | 0.097 | 7.5 | – | – | – | – | – | – | – | – |
| COC(=O)N[C@H](C(=O)N1C[Si](C)(C)C[C@H]1c1nc2ccc3cc(-c4ccc(-c5cnc([C@@H]6[C@@H]7C[C@@H]([C@@H](F)[C@H]7F)N6C(=O)[C@@H](NC(=O)OC)C(C)C)[nH]5)cc4)ccc3c2[nH]1)C(C)C [Compound 100] | 117 | < 0.2 | 204 | 0.043 | 0.002 | 0.023 | 7.4 | – | – | – | – | – | – | – | – |
| COCCOC(=O)N[C@H](C(=O)N1CCC(F)(F)C[C@H]1c1ncc(-c2ccc(-c3ccc4c(ccc5nc([C@@H]6C[Si](C)(C)CN6C(=O)[C@@H](NC(=O)OCCOC)C(C)C)[nH]c54)c3)cc2)[nH]1)C(C)C [Compound 87] | > 1000 | > 100 | > 1000 | > 1 | 2.5 | > 10 | > 100 | – | – | – | – | – | – | – | – |
| COC(=O)N[C@H](C(=O)N1CCC(F)(F)C[C@H]1c1ncc(-c2ccc(-c3ccc4c(ccc5nc([C@@H]6C[Si](C)(C)CN6C(=O)[C@@H](NC(=O)OC)C(C)C)[nH]c54)c3)cc2)[nH]1)C(C)C [Compound 85] | 89 | 1.16 | 728 | 0.102 | 0.009 | 0.065 | 0.69 | – | – | – | – | – | – | – | – |
